# Measured values taken from PMC11840605, “Crystallographic and Thermodynamic Evidence of Negative Coupling in the Flavin-Dependent Tryptophan Halogenases AbeH and BorH” (ACS Omega, 2025).
# Values joined by “and” are separate entries in the source; they are usually repeats but may differ in a detail not shown here. Equal entries are not always repeated. “Also recorded” adds a separate entry of the source.
# Key:
# AbeH [1] = molecular target: T1, AbeH (uncultured bacterium, UniProt F6LWA5); type: biochemical, uncultured soil actinomycetes; details: NaCl or NaBr reaction
# T1 sequence (F6LWA5 entry or part of it): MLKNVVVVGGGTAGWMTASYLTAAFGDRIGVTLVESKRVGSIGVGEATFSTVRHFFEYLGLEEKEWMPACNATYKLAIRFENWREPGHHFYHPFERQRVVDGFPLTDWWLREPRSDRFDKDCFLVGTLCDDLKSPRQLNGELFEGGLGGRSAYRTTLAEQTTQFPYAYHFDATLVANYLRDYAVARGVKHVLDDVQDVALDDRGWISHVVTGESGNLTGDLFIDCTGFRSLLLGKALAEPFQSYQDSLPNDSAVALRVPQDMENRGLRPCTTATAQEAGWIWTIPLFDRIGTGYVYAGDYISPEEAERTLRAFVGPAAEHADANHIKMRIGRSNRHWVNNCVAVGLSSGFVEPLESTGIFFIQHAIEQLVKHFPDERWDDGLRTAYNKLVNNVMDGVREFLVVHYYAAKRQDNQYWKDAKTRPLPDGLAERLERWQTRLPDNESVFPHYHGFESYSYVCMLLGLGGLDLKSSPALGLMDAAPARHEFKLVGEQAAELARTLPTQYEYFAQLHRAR
# Method: (§1) To test the ability of BorH and AbeH to chlorinate and brominate other substrates, 100 μL reactions containing 5 μM AbeH or BorH, 10 μM of holo-AbeF or holo-BorF, 100 mM NaCl or NaBr, 2.5 mM NADH, and 0.5 mM substrate in HEPES pH 8.0 were incubated for 12 h at 37 °C with shaking at 230 rpm. The reactions were stopped by heating at 95 °C for 5 min and centrifuged at 12,000g for 5 min. Clarified reaction mixtures were analyzed using RP-HPLC on a Kromasil C18 column (100 Å pore size, 4.6 × 250 mm) mounted on a Waters 2695 HPLC. The gradient was as follows: 0–7.5 min, 5–50% B; 7.5–14 min, 50–100%; 14–25 min, 100% B; 25–40 min 100–5% B with flow rate 0.6 mL/min (Solvent A = H2O/CH3CN 95:5, 0.1% TFA; Solvent B = H2O/CH3CN 5/95, 0.1% TFA). Substrates and products were detected by monitoring UV absorbance at the λmax for each substrate. Product peak fractions were analyzed using ESI-MS on a SYNAPT HDMS mass spectrometer in positive ion mode with leucine enkephalin internal standard.
# BorH [2] = molecular target: T2, BorH (uncultured bacterium, UniProt M9QSI0); test: In vitro halogenation of aromatic substrates by BorH (with BorF, NADH, NaCl or NaBr; RP-HPLC); type: biochemical, uncultured soil actinomycetes; details: for BorH bromination compared with chlorination of the substrate, in words: same reaction conditions; for Halogenation (chlorination/bromination) of the substrate by BorH, in words: NaCl or NaBr reaction
# T2 sequence (M9QSI0 1-529): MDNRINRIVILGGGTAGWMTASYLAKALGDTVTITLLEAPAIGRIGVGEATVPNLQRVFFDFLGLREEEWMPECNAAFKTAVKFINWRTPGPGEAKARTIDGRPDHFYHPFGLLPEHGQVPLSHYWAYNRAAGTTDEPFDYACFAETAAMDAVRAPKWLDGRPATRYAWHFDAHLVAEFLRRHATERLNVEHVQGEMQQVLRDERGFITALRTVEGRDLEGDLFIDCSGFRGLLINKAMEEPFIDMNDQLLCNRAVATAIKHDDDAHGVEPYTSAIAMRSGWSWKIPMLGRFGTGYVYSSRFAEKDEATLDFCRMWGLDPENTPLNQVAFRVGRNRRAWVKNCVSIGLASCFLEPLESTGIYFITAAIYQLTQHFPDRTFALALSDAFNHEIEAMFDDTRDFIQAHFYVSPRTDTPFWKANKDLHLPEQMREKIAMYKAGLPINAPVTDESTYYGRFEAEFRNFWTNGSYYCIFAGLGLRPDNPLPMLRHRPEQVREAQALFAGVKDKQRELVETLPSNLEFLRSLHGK
# Method: as §1
# BorH [3] = molecular target: T2, BorH; details: previously shown; cited from earlier work
# AbeH [4] = molecular target: T1, AbeH; test: Isothermal titration calorimetry, ligand into AbeH; type: binding, uncultured soil actinomycetes
# Method: (§2) ITC experiments were performed using a VP-ITC isothermal titration calorimeter (MicroCal) in 20 mM HEPES pH 7.5, 350 mM NaCl, 1 mM ethylenediamine tetraacetic acid (EDTA) and 15% (v/v) glycerol. Solutions of AbeH, BorH, FAD (Chem-Implex), and Trp (Acros Organics) were prepared in the same buffer and degassed under vacuum at 30 °C for 20 min before loading in the syringe or cell. To analyze formation of binary complexes, AbeH or BorH was placed inside the cell, and ligand (FAD or Trp) was injected. For ternary complex titration, one ligand was preincubated with the macromolecule for 30 min at 30 °C to form binary complexes of AbeH/FAD, AbeH/Trp, BorH/FAD, and BorH/Trp before titrating with the second ligand. To test FADH2 binding to AbeH and BorH, FAD was reduced to FADH2 using sodium dithionite and stored under N2. Formation of FADH2 by sodium dithionite was verified using absorbance and fluorescence spectrophotometry.
# (§3) ITC experiments were performed with reference power set to 10 μcal/s and Milli-Q water in the reference cell. All experiments were done with a pretitration delay of 20 min, a 5 min interval between injections, and a filter period of 2 s in high feedback gain mode. All experiments were performed at 310 rpm to mix the components in cell and titrant. All other VP-ITC instrumental parameters were set to default settings. Heats of dilution for all titrants were measured by titrating ligand into buffer for binary complex titrations, and by titrating ligand into a solution containing the other ligand but no protein for ternary complex titration.
# 1.2 mM FAD (2 μL/1 and 5 μL/19 injections) into 18 μM AbeH (Figure 4A)
# 0.12 mM FADH2 (2 μL/1 and 15 μL/19 injections) into 7 μM AbeH in the presence of sodium dithionite (Figure 4B)
# 1.4 mM Trp (3 μL/1 and 10 μL/29 injections) into 43 μM AbeH (Figure S7)
# 16 mM Trp (2 μL/1 and 10 μL/29 injections) into 18 μM AbeH (Figure 5A)
# (§4) Titrations were analyzed by manually integrating each injection, subtracting the heat of dilution, and carrying out nonlinear least-squares fit of the calorimetric binding data to a one-site model using Origin 7.0 (Origin Lab). Trp binding experiments were subtracted by point-by-point heat of dilution, and FAD and FADH2 binding experiments were subtracted using the mean heat of the last three injections. For the Trp binding data, n was fixed to 1 based on expected stoichiometry of 1:1 based on FDH crystal structures and as proposed for lower c-value titrations in the literature.[23],[25],[82] The other parameters were not constrained during fitting.
# BorH [5] = molecular target: T2, BorH; test: Isothermal titration calorimetry, ligand into BorH; type: binding, uncultured soil actinomycetes
# Method: as §2, with “Solutions” for “ITC experiments were performed using a VP-ITC isothermal titration calorimeter (MicroCal) in 20 mM HEPES pH 7.5, 350 mM NaCl, 1 mM ethylenediamine tetraacetic acid (EDTA) and 15% (v/v) glycerol. Solutions”
# as §3, §4
# BorF = details: read-out: KD, flavin binding to BorF; cited from earlier work
# AbeF = details: read-out: KD, flavin binding to AbeF; cited from earlier work
SMILES,"Halogenation (chlorination/bromination) of the substrate by AbeH, in words (AbeH [1])","BorH bromination compared with chlorination of the substrate, in words (BorH [2])","Halogenation (chlorination/bromination) of the substrate by BorH, in words (BorH [2])","Halogenation of the substrate by BorH, in words (BorH [3])",also measured
NCCc1c[nH]c2ccc(O)cc12 [Serotonin],did not halogenate; also recorded: No activity,–,–,–,–
N#Cc1ccc2[nH]ccc2c1 [5-cyanoindole],did not halogenate; also recorded: No activity,higher rate of bromination than chlorination,–,–,–
Nc1ccc2cccnc2c1 [7-aminoquinoline],chlorinated and brominated,–,could not halogenate; also recorded: No activity,–,–
"Nc1ccc2c(c1)NC(=O)CO2 [6-amino-2h-1,4-benzoxazin-3(4H)-one, 6-amino-2H-1,4-benzoxazin-3(4H)-one]",did not halogenate; also recorded: No activity,higher rate of bromination than chlorination,could halogenate,–,–
O=C(O)CCc1c[nH]c2ccccc12 [3-indolepropionic acid],halogenated,–,–,halogenate,–
N[C@@H](Cc1c[nH]c2ccc(O)cc12)C(=O)O [5-hydroxytryptophan],did not halogenate; also recorded: No activity,–,–,–,–
Nc1ccccc1C(=O)CC(N)C(=O)O (centres unmarked) [kynurenine],–,–,–,halogenate,–
Cc1cc2c(cc1C)N(C[C@H](O)[C@H](O)[C@H](O)COP(=O)(O)OP(=O)(O)OC[C@H]1O[C@@H](n3cnc4c(N)ncnc43)[C@H](O)[C@@H]1O)c1[nH]c(=O)[nH]c(=O)c1N2 [FADH2],–,–,–,–,"Kd (AbeH [4]; ITC, read-out: KD, binding to AbeH, ITC): 100 nM and 120 nM; -TDS (-TΔS, ITC, Table S3) (AbeH [4]; cell AbeH): 5.7 kcal/mol; DG (ΔG, ITC, Table S3) (AbeH [4]; cell AbeH): -9.6 kcal/mol; DH (ΔH, ITC, Table S3) (AbeH [4]; cell AbeH): -15.3 ± 0.7 kcal/mol; n (ITC, Table S3) (AbeH [4]; cell AbeH): 0.82 ± 0.03; Kd (BorH [5]; ITC, read-out: KD, binding to BorH, ITC): 200 nM and 210 nM; -TDS (-TΔS, ITC, Table S3) (BorH [5]; cell BorH): 15 kcal/mol; DG (ΔG, ITC, Table S3) (BorH [5]; cell BorH): -9.2 kcal/mol; DH (ΔH, ITC, Table S3) (BorH [5]; cell BorH): -24.2 ± 1.6 kcal/mol; n (ITC, Table S3) (BorH [5]; cell BorH): 0.97 ± 0.05; Kd (BorF): 800 nM; Kd (AbeF): 1500 nM"
Nc1ccc2ncccc2c1 [6-aminoquinoline],chlorinated and brominated,higher rate of bromination than chlorination,halogenated,halogenate,–
NC(=O)c1ccccc1N [Anthranilamide],halogenated,–,halogenated,halogenate,–
NCCc1c[nH]c2ccccc12 [Tryptamine],No activity,–,–,halogenate,–
c1ccc2[nH]ccc2c1 [Indole],efficiently chlorinated and brominated,higher rate of bromination than chlorination,–,–,–
